US8304216B2, “Method for production of erythro-or threo-2-amino-3-hydroxypropionic acid ester, novel carbonyl reductase, gene for the reductase, vector, transformant, and method for production of optically active alcohol using those” (Kaneka Corporation, priority 2006, dated 2012)

What follows are compounds tested on purified polypeptide (carbonyl reductase) from the Brevundimonas diminuta NBRC 12697 strain (assay: Substrate specificity of purified polypeptide: reducing activity against carbonyl compounds (NADH decrease at 340 nm)). Settings: substrate 2 mM, NADH 0.167 mM, 100 mM phosphate buffer pH 6.5, 0.4% (v/v) DMSO, 30° C., 3 minutes; activity against ethyl N-Boc-2-amino-3-cyclohexyl-3-oxopropionate taken as 100%.
Format: biochemical

relative activity [%]	SMILES
199	CCOC(=O)C1CCCC1=O (centres unmarked) [Ethyl 2-oxocyclopentanecarboxylate]
6046	CCCC(=O)C(=O)OCC [Ethyl 2-oxopentanoate]
100	CCOC(=O)C(NC(=O)OC(C)(C)C)C(=O)C1CCCCC1 (centres unmarked) [Ethyl N-Boc-2-amino-3-cyclohexyl-3-oxopropionate]
12198	CCOC(=O)C(=O)c1ccccc1 [Ethyl benzoylformate]
5625	COC(=O)C(C)=O [Methyl pyruvate]
273	CC(=O)CC(C)=O [acetylacetone]
4737	CC12CCC(C(=O)C1=O)C2(C)C (centres unmarked) [camphorquinone]
4830	CC(=O)C(C)=O [diacetyl]
2138	O=Cc1cccc(Cl)c1 [m-chlorobenzaldehyde]
248	CC(=O)C=O [methylglyoxal]
1219	O=Cc1ccccc1Cl [o-chlorobenzaldehyde]
445	O=Cc1ccc(Cl)cc1 [p-chlorobenzaldehyde]
156	O=C1CCSC1 [tetrahydrothiophen-3-one]

The remaining lines, values behind:

SMILES	relative activity [%]
O=C(c1ccccc1)C(F)(F)F [2,2,2-trifluoroacetophenone]	42277
O=C(CCl)c1cccc(Cl)c1 [2,3′-dichloroacetophenone]	12719
CC(=O)c1ccco1 [2-acetylfuran]	164
O=C(CCl)c1ccccc1 [2-chloroacetophenone]	12789
CCCCC(C)=O [2-hexanone]	1540
CC(C=O)c1ccccc1 (centres unmarked) [2-phenylpropionaldehyde]	621
CC(=O)c1ccncc1 [4-acetylpyrridine]	1149
CCOC(=O)C(Cl)C(=O)c1ccccc1 (centres unmarked) [Ethyl 2-chloro-3-oxo-3-phenylpropionate]	1139
CCOC(=O)C(Cl)C(C)=O (centres unmarked) [Ethyl 2-chloroacetoacetate]	7264
CCOC(=O)C(C)C(C)=O (centres unmarked) [Ethyl 2-methylacetoacetate]	425
CCOC(=O)CC(=O)CCl [Ethyl 4-chloroacetoacetate]	533470
COC(=O)CC(C)=O [Methyl acetoacetate]	1095
CC(=O)c1cccc(Cl)c1 [m-chloroacetophenone]	4368
CCCCCC=O [n-hexylaldehyde]	2160
CC(=O)c1ccccc1Cl [o-chloroacetophenone]	350
CC(=O)c1ccc(Cl)cc1 [p-chloroacetophenone]	534
